Test results published in patent US9790221B2, “Heteroaryl compounds as IRAK inhibitors and uses thereof” (Merck Patent GmbH, priority 2014, dated 2017).
Structures can show the parent of a compound that is named as a salt.

Columns and labels:
[1] = target: IRAK1 (His-TEV-IRAK1 (194-712)) (Homo sapiens (Human), UniProt P51617); assay: IRAK1 enzymatic assay; format: biochemical
Method: IRAK1 is a human purified recombinant enzyme (His-TEV-IRAK1 (194-712)). In this assay, IRAK-1 hydrolyses ATP and autophosphorylates. Measurement of IRAK-1 inhibition was performed in streptavidin coated 384well FlashPlate (PerkinElmer #SMP410A).
His-TEV-IRAK-1 (15 ng/well), ATP (1 μM, [33P]ATP 0.25 μCi/well) and compounds in DMSO (range of concentrations from 20 µM to 1 nM) or controls (2% DMSO) were incubated for 3 hours at 30° C. in assay buffer: Hepes pH7.0 50 mM, Fatty acid-free BSA 0.1%, Dithiothreitol DTT 2 mM, MgCl2 10 mM, EGTA 0.5 mM, Triton-X-100 0.01%. Kinase reaction was stopped by addition of EDTA. Supernatant was discarded, plates were washed three times with 150 mM NaCl and radioactivity was then measured in a Microbeta Trilux reader.

IRAK4 = IRAK4 (Homo sapiens (Human), UniProt Q9NWZ3); assay: IRAK4 enzymatic assay; format: biochemical
Method: IRAK4 is a human purified recombinant enzyme ([…]. IRAK4 hydrolyses ATP, autophosphorylates and phosphorylates a Serine/Threonine generic peptidic substrate (STK: 61ST1BLC from CisBio International based in Bagnols/Cèze FR).
Measurement of IRAK-4 inhibition was performed in streptavidin coated 384well FlashPlate (PerkinElmer #SMP410A). His-TEV-IRAK4 (20 ng/well), ATP (2 μM, [^33P]ATP 0.25 µCi/well), STK1-biotin peptide (300 nM) and compounds in DMSO (range of concentrations from 20 µM to 1 nM) or controls (2% DMSO) were incubated for 3 hours at 30° C. in assay buffer: Hepes pH7.0 50 mM, Fatty acid-free BSA 0.1%, Dithiothreitol DTT 2 mM, MgCl2 10 mM, EGTA 0.5 mM, Tween-20 0.01%, MnCl2 5 mM.
Kinase reaction was stopped by addition of EDTA. Supernatant was discarded, plates were washed three times with 150 mM NaCl and radioactivity was then measured in a Microbeta Trilux reader.

Sequence of IRAK1 (His-TEV-IRAK1 (194-712)) (P51617 194-712): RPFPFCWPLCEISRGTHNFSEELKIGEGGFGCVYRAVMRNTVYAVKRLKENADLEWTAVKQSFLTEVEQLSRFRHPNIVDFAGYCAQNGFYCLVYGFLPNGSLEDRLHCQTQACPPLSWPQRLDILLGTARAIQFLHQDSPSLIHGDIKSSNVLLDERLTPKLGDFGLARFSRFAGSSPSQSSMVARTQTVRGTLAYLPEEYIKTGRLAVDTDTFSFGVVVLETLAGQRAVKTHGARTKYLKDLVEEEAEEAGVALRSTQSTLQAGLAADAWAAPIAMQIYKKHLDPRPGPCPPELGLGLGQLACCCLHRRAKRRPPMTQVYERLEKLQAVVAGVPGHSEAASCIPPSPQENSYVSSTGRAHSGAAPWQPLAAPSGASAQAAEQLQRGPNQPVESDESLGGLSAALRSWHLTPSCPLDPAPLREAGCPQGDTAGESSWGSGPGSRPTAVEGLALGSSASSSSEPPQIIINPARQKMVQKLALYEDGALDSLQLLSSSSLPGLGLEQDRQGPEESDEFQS
Sequence of IRAK4 (Q9NWZ3 whole entry): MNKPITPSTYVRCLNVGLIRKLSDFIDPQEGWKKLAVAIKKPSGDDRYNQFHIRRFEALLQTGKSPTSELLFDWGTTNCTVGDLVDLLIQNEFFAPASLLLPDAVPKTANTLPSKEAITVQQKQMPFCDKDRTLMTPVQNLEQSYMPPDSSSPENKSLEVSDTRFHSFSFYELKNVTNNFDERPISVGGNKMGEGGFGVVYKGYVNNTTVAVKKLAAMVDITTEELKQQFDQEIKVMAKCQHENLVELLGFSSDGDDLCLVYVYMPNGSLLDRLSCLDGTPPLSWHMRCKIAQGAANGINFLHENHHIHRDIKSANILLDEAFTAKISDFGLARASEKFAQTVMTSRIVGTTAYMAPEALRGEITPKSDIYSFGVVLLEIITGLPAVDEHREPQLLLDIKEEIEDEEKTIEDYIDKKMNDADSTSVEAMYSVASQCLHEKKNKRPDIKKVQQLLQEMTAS

## Cn1cc(-c2cccc(-c3ncc(-c4cnn(C)c4)c(NC4CCN(S(C)(=O)=O)CC4)n3)c2)cn1 [Example 14, (1-Methanesulfonyl-piperidin-4-yl)-{5-(1-methyl-1H-pyrazol-4-yl)-2-[3-(1-methyl-1H-pyrazol-4-yl)-phenyl]-pyrimidin-4-yl}-amine]
[1]
  IC50: < 100 nM
IRAK4
  IC50: < 100 nM

## Cn1cc(-c2cccc(-c3cc(C(F)(F)F)c(-c4cnn(C5CCOCC5)c4)cn3)c2)cn1 [Example 23, 2-[3-(1-Methyl-1H-pyrazol-4-yl)-phenyl]-5-[1-(tetrahydro-pyran-4-yl)-1H-pyrazol-4-yl]-4-trifluoromethyl-pyridine]
[1]
  IC50: > 5000 nM
IRAK4
  IC50: 1000 to 5000 nM

## Cc1cc(-c2cccc(-c3cnn(C)c3)c2)ncc1-c1cnn(C2CCOCC2)c1 [Example 24, 4-Methyl-2-[3-(1-methyl-1H-pyrazol-4-yl)-phenyl]-5-[1-(tetrahydro-pyran-4-yl)-1H-pyrazol-4-yl]-pyridine]
[1]
  IC50: > 5000 nM
IRAK4
  IC50: 1000 to 5000 nM

## Cn1cc(-c2cccc(-c3ncc(-c4cnn(C)c4)c(NCC(N)=O)n3)c2)cn1 [Example 25, 2-{5-(1-Methyl-1H-pyrazol-4-yl)-2-[3-(1-methyl-1H-pyrazol-4-yl)-phenyl]-pyrimidin-4-ylamino}-acetamide formate]
[1]
  IC50: > 5000 nM
IRAK4
  IC50: 1000 to 5000 nM

## Cn1cc(-c2cccc(-c3ncc(-c4cnn(C)c4)c(NCC(=O)O)n3)c2)cn1 [Example 26, {5-(1-Methyl-1H-pyrazol-4-yl)-2-[3-(1-methyl-1H-pyrazol-4-yl)-phenyl]-pyrimidin-4-ylamino}-acetic Acid Formate]
[1]
  IC50: > 5000 nM
IRAK4
  IC50: > 5000 nM

## Cn1cc(-c2cccc(-c3ncc(-c4ccn(C)n4)c(NC4CCC4)n3)c2)cn1 [Example 27, Cyclobutyl-{5-(1-methyl-1H-pyrazol-3-yl)-2-[3-(1-methyl-1H-pyrazol-4-yl)-phenyl]-pyrimidin-4-yl}-amine]
[1]
  IC50: 1000 to 5000 nM
IRAK4
  IC50: 100 to 1000 nM

## Cn1cc(-c2cccc(-c3ncc(-c4ccn(C)n4)c(NC4CC4)n3)c2)cn1 [Example 29]
[1]
  IC50: 1000 to 5000 nM
IRAK4
  IC50: 100 to 1000 nM

## Cn1cc(-c2cccc(-c3ncc(-c4cnn(C)c4)c(NC4CC4)n3)c2)cn1 [Example 30]
[1]
  IC50: 100 to 1000 nM
IRAK4
  IC50: 100 to 1000 nM

## Cn1cc(-c2cccc(-c3ncc(-c4cnn(C)c4)c(NC4CCC4)n3)c2)cn1 [Example 31]
[1]
  IC50: 100 to 1000 nM
IRAK4
  IC50: 100 to 1000 nM

## Cn1cc(-c2cccc(-c3ncc(-c4ccn(C)n4)c(NC4CCCC4)n3)c2)cn1 [Example 33]
[1]
  IC50: 1000 to 5000 nM
IRAK4
  IC50: 1000 to 5000 nM

## Cn1cc(-c2cccc(-c3ncc(-c4cnn(C)c4)c(NCCN)n3)c2)cn1 [Example 34]
[1]
  IC50: > 5000 nM
IRAK4
  IC50: 1000 to 5000 nM

## Cn1cc(-c2cccc(-c3ncc(-c4cnn(C)c4)c(NCCN4CCCC4=O)n3)c2)cn1 [Example 39]
[1]
  IC50: > 5000 nM
IRAK4
  IC50: 1000 to 5000 nM

## Cn1cc(-c2cccc(-c3ncc(-c4cnn(C)c4)c(NCCCN4CCCC4=O)n3)c2)cn1 [Example 40]
[1]
  IC50: > 5000 nM
IRAK4
  IC50: 1000 to 5000 nM

## Cn1cc(-c2cccc(-c3ncc(-c4cnn(C)c4)c(NCCCN4CCOCC4)n3)c2)cn1 [Example 51]
[1]
  IC50: > 5000 nM
IRAK4
  IC50: 1000 to 5000 nM

## Cn1cc(-c2cccc(-c3ncc(-c4cnn(C)c4)c(NCCN4CCNC4=O)n3)c2)cn1 [Example 58]
[1]
  IC50: 1000 to 5000 nM
IRAK4
  IC50: 1000 to 5000 nM

## Cn1cc(-c2cccc(-c3ncc(-c4cnn(C)c4)c(NCC4CNCCO4)n3)c2)cn1 (stereo not shown) [Example 59]
[1]
  IC50: > 5000 nM
IRAK4
  IC50: 100 to 1000 nM

## Cn1cc(-c2cccc(-c3ncc(-c4cnn(C)c4)c(NC[C@@H]4CCC(=O)N4)n3)c2)cn1 [Example 61]
[1]
  IC50: > 5000 nM
IRAK4
  IC50: 100 to 1000 nM

## Cn1cc(-c2cccc(-c3ncc(-c4cnn(C)c4)c(NC[C@H]4CCNC4)n3)c2)cn1 [Example 64]
[1]
  IC50: 1000 to 5000 nM
IRAK4
  IC50: 100 to 1000 nM

## Cn1cc(-c2cccc(-c3ncc(-c4ccn(C)n4)c(NCCCN4CCOC4=O)n3)c2)cn1 [Example 67]
[1]
  IC50: > 5000 nM
IRAK4
  IC50: 100 to 1000 nM

## Cn1cc(-c2cccc(-c3ncc(-c4ccn(C)n4)c(NCCCO)n3)c2)cn1 [Example 68]
[1]
  IC50: 1000 to 5000 nM
IRAK4
  IC50: 100 to 1000 nM

## Cn1cc(-c2cccc(-c3ncc(-c4ccn(C)n4)c(NCCN4CCOCC4)n3)c2)cn1 [Example 69]
[1]
  IC50: > 5000 nM
IRAK4
  IC50: 100 to 1000 nM

## Cn1cc(-c2cccc(-c3ncc(-c4ccn(C)n4)c(NCCN4CCCC4=O)n3)c2)cn1 [Example 70]
[1]
  IC50: 100 to 1000 nM
IRAK4
  IC50: 1000 to 5000 nM

## Cn1cc(-c2cccc(-c3ncc(-c4ccn(C)n4)c(NCC4(C)CCC4)n3)c2)cn1 [Example 71]
[1]
  IC50: > 5000 nM
IRAK4
  IC50: > 5000 nM

## Cn1cc(-c2cccc(-c3ncc(-c4ccn(C)n4)c(NCCCN4CCCC4=O)n3)c2)cn1 [Example 72]
[1]
  IC50: > 5000 nM
IRAK4
  IC50: 1000 to 5000 nM

## CC(=O)NCCNc1nc(-c2cccc(-c3cnn(C)c3)c2)ncc1-c1ccn(C)n1 [Example 73]
[1]
  IC50: 1000 to 5000 nM
IRAK4
  IC50: 1000 to 5000 nM

## Cn1cc(-c2cccc(-c3ncc(-c4ccn(C)n4)c(NCC4CCNC(=O)C4)n3)c2)cn1 (stereo not shown) [Example 74]
[1]
  IC50: 1000 to 5000 nM
IRAK4
  IC50: 100 to 1000 nM

## Cn1cc(-c2cccc(-c3ncc(-c4ccn(C)n4)c(NCCCN4CCOCC4)n3)c2)cn1 [Example 75]
[1]
  IC50: > 5000 nM
IRAK4
  IC50: > 5000 nM

## Cn1cc(-c2cccc(-c3ncc(-c4cnn(C)c4)c(NCCCN4CCOC4=O)n3)c2)cn1 [Example 78]
[1]
  IC50: 1000 to 5000 nM
IRAK4
  IC50: 100 to 1000 nM

## Cn1cc(-c2cccc(-c3ncc(-c4ccn(C)n4)c(N[C@H]4C[C@@H](S(C)(=O)=O)C4)n3)c2)cn1 [Example 79]
[1]
  IC50: 100 to 1000 nM
IRAK4
  IC50: 100 to 1000 nM

## Cn1cc(-c2cccc(-c3ncc(-c4ccn(C)n4)c(NC4CC(F)C4)n3)c2)cn1 (stereo not shown) [Example 80]
[1]
  IC50: > 5000 nM
IRAK4
  IC50: 100 to 1000 nM

## Cn1cc(-c2cccc(-c3ncc(-c4ccn(C)n4)c(NC4CC(O)C4)n3)c2)cn1 (stereo not shown) [Example 82]
[1]
  IC50: 1000 to 5000 nM
IRAK4
  IC50: 100 to 1000 nM

## Cn1cc(-c2cccc(-c3ncc(-c4cnn(C)c4)c(NCCCCN)n3)c2)cn1 [Example 88]
[1]
  IC50: > 5000 nM
IRAK4
  IC50: 100 to 1000 nM

## Cn1cc(-c2cccc(-c3ncc(-c4cnn(C)c4)c(NCCCN)n3)c2)cn1 [Example 89]
[1]
  IC50: > 5000 nM
IRAK4
  IC50: 1000 to 5000 nM

## Cn1cc(-c2cccc(-c3ncc(-c4ccn(C)n4)c(NC4CC(F)(F)C4)n3)c2)cn1 [Example 90]
[1]
  IC50: > 5000 nM
IRAK4
  IC50: > 5000 nM

## Cn1cc(-c2cccc(-c3ncc(-c4ccn(C)n4)c(NCCN4CCOC4=O)n3)c2)cn1 [Example 91]
[1]
  IC50: > 5000 nM
IRAK4
  IC50: > 5000 nM

## Cn1cc(-c2cccc(-c3ncc(-c4cnn(C)c4)c(NC4(CO)COC4)n3)c2)cn1 [Example 92]
[1]
  IC50: > 5000 nM
IRAK4
  IC50: > 5000 nM

## Cn1cc(-c2cccc(-c3ncc(-c4cnn(C)c4)c(NCCO)n3)c2)cn1 [Example 96]
[1]
  IC50: 1000 to 5000 nM
IRAK4
  IC50: < 100 nM

## Cn1cc(-c2cccc(-c3ncc(-c4ccn(C)n4)c(NC4CC5(CC(N)C5)C4)n3)c2)cn1 (stereo not shown) [Example 98]
[1]
  IC50: 1000 to 5000 nM
IRAK4
  IC50: 100 to 1000 nM

## Cn1cc(-c2cccc(-c3ncc(-c4ccn(C)n4)c(NCCO)n3)c2)cn1 [Example 100]
[1]
  IC50: 1000 to 5000 nM
IRAK4
  IC50: 100 to 1000 nM

## Cn1cc(-c2cccc(-c3ncc(-c4ccn(C)n4)c(NC4CCC(=O)NC4)n3)c2)cn1 (stereo not shown) [Example 102]
[1]
  IC50: 1000 to 5000 nM
IRAK4
  IC50: 100 to 1000 nM

## Cn1cc(-c2cccc(-c3ncc(-c4cnn(C)c4)c(NC4CCC(=O)NC4)n3)c2)cn1 (stereo not shown) [Example 103]
[1]
  IC50: 1000 to 5000 nM
IRAK4
  IC50: < 100 nM

## Cn1cc(-c2cccc(-c3ncc(-c4ccn(C)n4)c(NC[C@H]4CCNC4)n3)c2)cn1 [Example 104]
[1]
  IC50: 1000 to 5000 nM
IRAK4
  IC50: 100 to 1000 nM

## CN1CCOC(CNc2nc(-c3cccc(-c4cnn(C)c4)c3)ncc2-c2cnn(C)c2)C1 (stereo not shown) [Example 105]
[1]
  IC50: > 5000 nM
IRAK4
  IC50: 100 to 1000 nM

## Cn1cc(-c2cccc(-c3ncc(-c4nnc(C(=O)N5CC[C@@H](O)C5)s4)c(NCC4CNC4)n3)c2)cn1 [Example 106]
[1]
  IC50: > 5000 nM
IRAK4
  IC50: < 100 nM

## CC(=O)NCCCNc1nc(-c2cccc(-c3cnn(C)c3)c2)ncc1-c1cnn(C)c1 [Example 109]
[1]
  IC50: > 5000 nM
IRAK4
  IC50: 100 to 1000 nM

## Cn1cc(-c2cccc(-c3ncc(-c4cnn(C)c4)c(NCCN4CCC(O)CC4)n3)c2)cn1 [Example 110]
[1]
  IC50: > 5000 nM
IRAK4
  IC50: 1000 to 5000 nM

## Cn1cc(-c2cccc(-c3ncc(-c4ccn(C)n4)c(N[C@H]4CC[C@@H](N)CC4)n3)c2)cn1 [Example 111]
[1]
  IC50: 100 to 1000 nM
IRAK4
  IC50: < 100 nM

## Cn1cc(-c2cccc(-c3ncc(-c4ccn(C)n4)c(NCC4(O)CCNCC4(C)C)n3)c2)cn1 (stereo not shown) [Example 114]
[1]
  IC50: 1000 to 5000 nM
IRAK4
  IC50: 100 to 1000 nM

## Cn1cc(-c2cccc(-c3ncc(-c4ccn(C)n4)c(N[C@H]4CCNC4)n3)c2)cn1 [Example 117]
[1]
  IC50: > 5000 nM
IRAK4
  IC50: 100 to 1000 nM

## Cn1cc(-c2cccc(-c3ncc(-c4ccn(C)n4)c(NC[C@H](O)CO)n3)c2)cn1 [Example 120]
[1]
  IC50: 100 to 1000 nM
IRAK4
  IC50: 100 to 1000 nM
